The values that follow come from patent publication US20230372262A1, “COMPOSITION FOR TREATING VASCULAR DISEASE, COMPOSITION FOR REVENTING VASCULAR DISEASE, COMPOSITION FOR TREATING HYPERTENSION, AND COMPOSITION FOR PREVENTING HYPERTENSION” (KINKI UNIVERSITY, priority 2020, published 2023).

Test [1] deals with rat abdominal aorta (elastic lamina). Kind of test: Recovery of elastic fibra in cultured abdominal aorta after nicotine (Example 8). The settings on record: for Evaluation (rate of destruction): as Table 9; for Rate of destruction (%) of elastic lamina: rat abdominal aorta, nicotine 24 h, then nothing, 24 h nicotine-free medium, or 24 h β-caryophyllene 100 nM.
Test [2] has the same test system. Kind of test: Rate of destruction of elastic lamina in cultured abdominal aorta with nicotine, EVG staining (Examples 5 to 7). The settings on record: as Table 7 rate of destruction.
Protocol: Unnecessary surrounding tissues were removed from the harvested abdominal aorta, which was then dipped in a medium for aorta culture. […] These abdominal aorta specimens were cultured in a medium for aorta culture under conditions of 37° C. and 5% CO2 for 24 hours. […] Specifically, the aortic wall was stained by Elastica van Gieson (EVG) staining and immunohistochemical staining. The quantitative analysis of the histochemical stain was carried out using ImageJ software (National Institutes of Health, Bethesda, Maryland, USA). Since an elastic lamina waveform is EVG-stained, the destruction of the vascular wall was estimated from the ratio of its area. The rate of destruction of the wavy configuration of elastic lamina was calculated by dividing a destroyed region (indicated by flattening and fragmentation of elastic lamina) by the whole region of the elastic lamina.
Test [3] concerns elastic lamina of thoracic aorta and abdominal aorta. Description: Rate of destruction of elastic lamina in aorta of mice given nicotine water and inhaled β-caryophyllene (Example 9). The format is in vivo, ddy mice. Particulars: for Evaluation (rate of destruction): as Table 10; for Rate of destruction (%) of elastic lamina: mouse aorta, nicotine 0.5 mg/mL in drinking water and/or β-caryophyllene inhalation 1 hour per exposure day. An excerpt:
After the test, thoracic aorta and abdominal aorta were obtained by dissection. Each harvested aorta was Elastica van Gieson (EVG)-stained to measure and evaluate the rate of destruction of elastic lamina.

In the case of `CN1CCCC1c1cccnc1` (single isomer, unassigned) [Comparative Example 4, nicotine], in test [1], the “Evaluation (rate of destruction)” value is on record as “B (a rate of destruction of more than 35% was given B)” and the “Rate of destruction (%) of elastic lamina” value (“Rate … (%) of elastic lamina” for short) was 54%. With `CN1CCCC1c1cccnc1` (single isomer, unassigned) [Comparative Example 5, nicotine], in test [1], the “Evaluation (rate of destruction)” value is given as “B (a rate of destruction of more than 35% was given B)” and the “Rate … (%) of elastic lamina” value is 58%. Take `CN1CCCC1c1cccnc1` (stereo not drawn) [Comparative Example 2, nicotine, reference compound]: the “Evaluation (rate of destruction)” value in test [2] is “B (When the rate of destruction of the elastic lamina waveform was 30% or more, the sample was evaluated as having a state in which the vascular wall was destroyed (evaluation B))”. Regarding `C=C1CC/C=C(\C)CC[C@@H]2[C@@H]1CC2(C)C` [Comparative Example 7, β-caryophyllene], in test [3], the “Evaluation (rate of destruction)” value is “A (When the rate of destruction of the elastic lamina waveform was less than 30%, the sample was evaluated as having a state in which the vascular wall was not destroyed (evaluation A))” and the “Rate … (%) of elastic lamina” value came out at 11%. On to `CN1CCCC1c1cccnc1` (stereo not drawn) [Comparative Example 8, nicotine, reference compound], for which, in test [3], the “Evaluation (rate of destruction)” value is recorded as “B (When the rate of destruction of the elastic lamina waveform was 30% or more, the sample was evaluated as having a state in which the vascular wall was destroyed (evaluation B))” and the “Rate … (%) of elastic lamina” value is recorded as 42%. Regarding `C=C1CC/C=C(\C)CC[C@@H]2[C@@H]1CC2(C)C` [Example 5, β-caryophyllene], the “Rate … (%) of elastic lamina” value in test [3] is listed as 15%. In addition, in test [2], the “Evaluation (rate of destruction)” value is given as “A (When the rate of destruction of the elastic lamina waveform was less than 30%, the sample was evaluated as having a state in which the vascular wall was not destroyed (evaluation A))”. `C=C1CC/C=C(\C)CC[C@@H]2[C@@H]1CC2(C)C` [Example 8, β-caryophyllene]: in test [1], the “Evaluation (rate of destruction)” value is reported as “A (A rate of destruction of 35% or less was given evaluation A)” and the “Rate … (%) of elastic lamina” value worked out at 18%. Consider `C=C1CC/C=C(\C)CC[C@@H]2[C@@H]1CC2(C)C` [Example 9, β-caryophyllene], for which, in test [3], the “Evaluation (rate of destruction)” value is “A (When the rate of destruction of the elastic lamina waveform was less than 30%, the sample was evaluated as having a state in which the vascular wall was not destroyed (evaluation A))” and the “Rate … (%) of elastic lamina” value is recorded as 15%.
